The target of test [1] is Dual specificity mitogen-activated protein kinase kinase 1 (Homo sapiens) (UniProt Q02750). Description: Residual activity of human MEK1 using ERK2 (K52R) as substrate at 1 uM in presence of 32P-ATP by Hotspot assay relative to control.
For test [2], the target named is T1, Ephrin type-B receptor 3 (Homo sapiens) (UniProt P54753).
T1 sequence (whole entry): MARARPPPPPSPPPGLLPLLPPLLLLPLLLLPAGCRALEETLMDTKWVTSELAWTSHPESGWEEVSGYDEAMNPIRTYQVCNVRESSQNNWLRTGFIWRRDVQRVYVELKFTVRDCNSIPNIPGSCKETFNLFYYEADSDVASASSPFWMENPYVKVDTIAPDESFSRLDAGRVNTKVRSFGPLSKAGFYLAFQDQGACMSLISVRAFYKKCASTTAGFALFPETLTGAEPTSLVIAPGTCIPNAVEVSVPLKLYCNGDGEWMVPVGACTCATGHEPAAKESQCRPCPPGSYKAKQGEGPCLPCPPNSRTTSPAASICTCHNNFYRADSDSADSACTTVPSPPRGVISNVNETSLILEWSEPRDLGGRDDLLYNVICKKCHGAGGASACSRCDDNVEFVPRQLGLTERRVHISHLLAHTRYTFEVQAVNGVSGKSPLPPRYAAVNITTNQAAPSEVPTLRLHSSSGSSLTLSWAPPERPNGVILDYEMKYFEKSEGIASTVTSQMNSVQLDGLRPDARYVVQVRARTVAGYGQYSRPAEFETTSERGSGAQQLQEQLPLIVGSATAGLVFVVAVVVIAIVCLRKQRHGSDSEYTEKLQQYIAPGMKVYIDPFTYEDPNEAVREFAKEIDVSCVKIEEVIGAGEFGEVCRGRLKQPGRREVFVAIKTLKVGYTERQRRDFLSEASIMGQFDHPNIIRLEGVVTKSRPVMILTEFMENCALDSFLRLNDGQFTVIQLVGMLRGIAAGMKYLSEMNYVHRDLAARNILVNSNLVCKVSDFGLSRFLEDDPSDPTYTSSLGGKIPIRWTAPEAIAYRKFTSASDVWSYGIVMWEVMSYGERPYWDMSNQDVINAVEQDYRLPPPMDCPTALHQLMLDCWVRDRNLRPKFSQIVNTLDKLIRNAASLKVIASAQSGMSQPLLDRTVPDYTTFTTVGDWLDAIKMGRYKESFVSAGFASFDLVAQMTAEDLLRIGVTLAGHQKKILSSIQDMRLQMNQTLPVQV
Kind of test: Residual activity of human EPHB3 using poly[Glu:Tyr] (4:1) as substrate at 1 uM in presence of 32P-ATP by Hotspot assay relative to control.

The target in test [3] is Mitogen-activated protein kinase 9 (Homo sapiens) (UniProt P45984). Kind of test: Inhibition of human JNK2 using ATF2 as substrate at 1 uM in presence of 32P-ATP by Hotspot assay relative to control; values are per cent of control.
Sequence of Mitogen-activated protein kinase 9 (Homo sapiens) (P45984 whole entry, looked up): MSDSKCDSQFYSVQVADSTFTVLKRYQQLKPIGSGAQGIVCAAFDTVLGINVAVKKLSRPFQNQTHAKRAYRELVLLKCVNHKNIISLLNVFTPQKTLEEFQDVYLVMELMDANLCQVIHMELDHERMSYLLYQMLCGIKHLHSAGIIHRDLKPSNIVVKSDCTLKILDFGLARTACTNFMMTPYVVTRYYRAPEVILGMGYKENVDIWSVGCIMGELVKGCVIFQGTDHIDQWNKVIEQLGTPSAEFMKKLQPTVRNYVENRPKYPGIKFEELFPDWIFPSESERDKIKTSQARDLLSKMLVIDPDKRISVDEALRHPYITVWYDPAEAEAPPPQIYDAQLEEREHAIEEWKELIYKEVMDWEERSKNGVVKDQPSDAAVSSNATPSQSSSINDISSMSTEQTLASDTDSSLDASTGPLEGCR
The target in test [4] is Serine/threonine-protein kinase Nek7 (Homo sapiens) (UniProt Q8TDX7). Kind of test: Inhibition of human NEK7 using casein as substrate at 1 uM in presence of 32P-ATP by Hotspot assay relative to control; values are per cent of control.
Sequence of Serine/threonine-protein kinase Nek7 (Homo sapiens) (Q8TDX7 whole entry, looked up): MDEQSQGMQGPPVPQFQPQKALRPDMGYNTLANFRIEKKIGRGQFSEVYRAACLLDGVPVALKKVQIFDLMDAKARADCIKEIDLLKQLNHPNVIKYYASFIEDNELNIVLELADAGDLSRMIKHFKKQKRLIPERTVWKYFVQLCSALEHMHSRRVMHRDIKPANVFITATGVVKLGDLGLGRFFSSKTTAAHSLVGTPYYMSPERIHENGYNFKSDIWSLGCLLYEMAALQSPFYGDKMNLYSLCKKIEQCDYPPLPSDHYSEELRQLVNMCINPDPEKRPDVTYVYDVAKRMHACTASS
For test [5], the target named is T2, Mitogen-activated protein kinase kinase kinase 7 (Homo sapiens) (UniProt O43318).
T2 sequence (whole entry): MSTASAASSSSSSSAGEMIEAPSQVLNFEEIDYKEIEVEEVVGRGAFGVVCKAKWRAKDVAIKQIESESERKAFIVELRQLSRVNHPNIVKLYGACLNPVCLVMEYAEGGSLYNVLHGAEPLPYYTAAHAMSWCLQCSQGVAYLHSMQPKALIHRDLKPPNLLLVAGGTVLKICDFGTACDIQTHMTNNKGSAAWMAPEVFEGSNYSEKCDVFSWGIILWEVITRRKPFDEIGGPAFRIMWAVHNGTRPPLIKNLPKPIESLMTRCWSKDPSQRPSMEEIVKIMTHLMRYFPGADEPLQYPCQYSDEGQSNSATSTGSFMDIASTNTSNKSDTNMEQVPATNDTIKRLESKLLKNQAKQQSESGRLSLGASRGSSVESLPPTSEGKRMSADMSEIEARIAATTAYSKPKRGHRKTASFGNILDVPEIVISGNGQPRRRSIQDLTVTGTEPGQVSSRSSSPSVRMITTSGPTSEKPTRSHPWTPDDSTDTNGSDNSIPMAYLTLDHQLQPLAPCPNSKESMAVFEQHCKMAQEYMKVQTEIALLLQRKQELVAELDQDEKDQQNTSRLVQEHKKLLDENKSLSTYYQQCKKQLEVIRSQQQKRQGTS
Kind of test: Inhibition of human TAK1 using casein as substrate at 1 uM in presence of 32P-ATP by Hotspot assay relative to control; values are per cent of control.

For test [6], the target named is Casein kinase II subunit alpha' (Homo sapiens) (UniProt P19784). Description: Inhibition of human CK2a2 using RRRDDDSDDD as substrate at 1 uM in presence of 32P-ATP by Hotspot assay relative to control; values are per cent of control.
Sequence of Casein kinase II subunit alpha' (Homo sapiens) (P19784 whole entry, looked up): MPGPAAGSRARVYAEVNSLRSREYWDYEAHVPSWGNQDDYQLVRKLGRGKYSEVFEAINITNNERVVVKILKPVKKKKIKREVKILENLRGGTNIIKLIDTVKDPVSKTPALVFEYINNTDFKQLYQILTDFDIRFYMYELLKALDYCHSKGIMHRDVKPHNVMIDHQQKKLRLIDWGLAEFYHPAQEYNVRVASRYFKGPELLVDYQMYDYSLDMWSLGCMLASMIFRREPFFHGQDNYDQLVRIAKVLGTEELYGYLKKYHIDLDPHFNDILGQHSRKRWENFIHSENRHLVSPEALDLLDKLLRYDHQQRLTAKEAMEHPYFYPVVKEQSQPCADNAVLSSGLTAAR
Test [7] addresses T3, Dual specificity mitogen-activated protein kinase kinase 6 (Homo sapiens) (UniProt P52564).
T3 sequence (whole entry): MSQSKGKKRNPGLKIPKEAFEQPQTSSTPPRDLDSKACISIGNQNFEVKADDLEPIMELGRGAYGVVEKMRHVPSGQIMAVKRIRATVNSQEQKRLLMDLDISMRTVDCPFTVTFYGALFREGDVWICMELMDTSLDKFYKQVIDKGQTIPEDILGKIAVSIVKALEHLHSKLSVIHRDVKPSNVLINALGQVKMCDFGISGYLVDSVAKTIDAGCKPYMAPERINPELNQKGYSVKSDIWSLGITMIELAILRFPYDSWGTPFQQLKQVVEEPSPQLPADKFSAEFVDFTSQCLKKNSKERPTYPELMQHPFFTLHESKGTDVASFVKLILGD
Kind of test: Inhibition of human MKK6 using p38a (K53A) as substrate at 1 uM in presence of 32P-ATP by Hotspot assay relative to control; values are per cent of control.

The target in test [8] is Cyclin-dependent kinase 4/cyclin D1 (Homo sapiens) (UniProt P11802+P24385). Description: Inhibition of human CDK4/cyclin D1 using RB Protein as substrate at 1 uM in presence of 32P-ATP by Hotspot assay relative to control; values are per cent of control.
In test [9] the target is Calcium/calmodulin-dependent protein kinase kinase 1 (Homo sapiens) (UniProt Q8N5S9). Kind of test: Inhibition of human CAMKK1 using myelin basic protein as substrate at 1 uM in presence of 32P-ATP by Hotspot assay relative to control; values are per cent of control.
Sequence of Calcium/calmodulin-dependent protein kinase kinase 1 (Homo sapiens) (Q8N5S9 whole entry, looked up): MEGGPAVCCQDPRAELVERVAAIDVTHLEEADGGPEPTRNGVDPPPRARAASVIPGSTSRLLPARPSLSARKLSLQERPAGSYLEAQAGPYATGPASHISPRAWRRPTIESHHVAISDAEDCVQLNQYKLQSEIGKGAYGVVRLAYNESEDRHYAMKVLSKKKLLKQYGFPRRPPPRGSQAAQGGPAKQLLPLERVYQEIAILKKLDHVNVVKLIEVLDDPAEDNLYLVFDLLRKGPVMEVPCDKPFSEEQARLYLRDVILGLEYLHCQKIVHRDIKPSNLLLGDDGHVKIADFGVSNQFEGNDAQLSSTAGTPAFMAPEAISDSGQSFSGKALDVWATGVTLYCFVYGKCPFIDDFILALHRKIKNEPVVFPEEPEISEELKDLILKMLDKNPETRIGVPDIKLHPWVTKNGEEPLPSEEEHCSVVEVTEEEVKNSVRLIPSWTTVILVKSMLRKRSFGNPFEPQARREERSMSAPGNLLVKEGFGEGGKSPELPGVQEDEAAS

Drawing on ChEMBL document CHEMBL5649166, “RIP3 induces apoptosis independent of pronecrotic kinase activity” (Mol Cell, 2014), this text covers residual activity for 3 compounds.

Sequence of Dual specificity mitogen-activated protein kinase kinase 1 (Homo sapiens) (Q02750 whole entry): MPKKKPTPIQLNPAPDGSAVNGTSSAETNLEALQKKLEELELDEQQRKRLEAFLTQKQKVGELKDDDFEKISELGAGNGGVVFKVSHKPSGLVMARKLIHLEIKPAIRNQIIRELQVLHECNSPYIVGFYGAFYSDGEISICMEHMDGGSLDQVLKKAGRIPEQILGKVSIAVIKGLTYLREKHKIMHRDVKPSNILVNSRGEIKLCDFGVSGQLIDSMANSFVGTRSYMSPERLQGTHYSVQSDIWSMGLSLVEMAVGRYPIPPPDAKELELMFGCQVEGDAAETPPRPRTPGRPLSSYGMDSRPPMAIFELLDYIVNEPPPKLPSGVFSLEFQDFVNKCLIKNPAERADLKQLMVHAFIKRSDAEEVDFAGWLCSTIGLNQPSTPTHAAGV

Turning to `CNC(=O)c1ccc2c(c1)ncn2-c1ccc(CC(=O)OC(C)(C)C)cc1`, the residual activity in test [1] is 86.8%; in test [2], 93.6%; in test [3], 96.6%; in test [4], 91.5%; in [5] it was 106%; in [6], 96.3%. Also, the residual activity came to 98.5% in [7], 96.8% in [8] and 77.3% in [9].
As for `Cc1cc(-c2cnc(N)c3c(-c4ccc5scnc5c4)csc23)n(C)n1`, the residual activity stood at 59.7% in test [1]; 91.4% in test [2]; 69.7% in test [3]; 94.9% in test [4]; 96.2% in test [5]; 88.9% in test [6]. The residual activity in test [7] is 92.9%; in test [8] it was 105%; in test [9] it was 98.6%.
Consider `CC(C)S(=O)(=O)c1ccc2nccc(Nc3ccc4scnc4c3)c2c1`, for which the residual activity turned out to be 102% in [1]; 61.2% in test [2]; 106% in test [3]; 95.6% in test [4]; 97.6% in test [5]; 97.1% in [6]. Besides, the residual activity in [7] stood at 91.3%; in test [8], 95.2%; in test [9], 99.3%.
